These results are taken from ChEMBL document CHEMBL1201862, “PubChem BioAssay data set” (2004).

Each structure is given as a SMILES string.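 Tested at 5 concentrations; 48 h exposure; 96-well plates; endpoints linearly interpolated, else capped at highest concentration. GI50 marks 50% less growth.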 Activity calls are given as the source filed them. No stated cut-off is given here; in the data, active = GI50 up to about 1.1 µM and inactive = higher.

Test systems include CCRF-CEM; SF-295; HCC 2998; HCT-15; MDA-MB-435; SK-MEL-5; NCI/ADR-RES; SF-268; HCT-116; SNB-19; ACHN; 786-0; IGROV-1; RPMI-8226; U-251; NCI-H226; UACC-62; OVCAR-3; SK-MEL-2; HOP-92.
What all share (experiment): inhibition of tumour cell growth, NCI panel, 48 h

Consider `CC1SC(=O)SC1C` (stereo not drawn), for which the GI50 in the test on CCRF-CEM was > 100 µM (inactive); with SF-295, > 100 µM (inactive); in the test on HCC 2998, > 100 µM (inactive); in the test on HCT-15, above 100 µM; in the test on MDA-MB-435, > 100 µM (inactive); in the test on SK-MEL-5 it was > 100 µM (inactive). For the same compound, the GI50 with NCI/ADR-RES, in the test with SF-268, in the test on HCT-116, in the test on SNB-19, with ACHN and in the test with 786-0 was > 100 µM (inactive) in each case. Moreover, the GI50 with IGROV-1, in the test on RPMI-8226 and with U-251 was > 100 µM (inactive) in each case.
Take `CCOC(=O)/C=C/CC(C)(C)COC(C)=O`: the GI50 in the test with NCI-H226 was 2.45 µM (inactive); with CCRF-CEM, > 10 µM (inactive); in the test on SF-295 it was > 10 µM (inactive); in the test on HCC 2998, > 10 µM (inactive); in the test with UACC-62 it was > 10 µM (inactive); in the test on HCT-15 it was above 10 µM. Besides, the GI50 is > 10 µM (inactive) in the test on MDA-MB-435; > 10 µM (inactive) with NCI/ADR-RES; > 10 µM (inactive) with SF-268; 6.1 µM (inactive) with HCT-116; 6.75 µM (inactive) in the test with ACHN; > 10 µM (inactive) with OVCAR-3. Besides, the GI50 in the test on RPMI-8226 and in the test on SK-MEL-2 was > 10 µM (inactive) each time.
As for `Nc1nc(N)c2ncn(Cc3ccccc3CO)c2n1`, the GI50 in the test with NCI-H226 is > 100 µM (inactive); with CCRF-CEM it was 29.7 µM (inactive); in the test with SF-295, > 100 µM (inactive); with HOP-92, > 100 µM (inactive); with UACC-62, > 100 µM (inactive); in the test on HCT-15 it was above 100 µM. The GI50 with MDA-MB-435, in the test on SK-MEL-5, with NCI/ADR-RES, with SF-268, in the test with HCT-116 and in the test with SNB-19 was > 100 µM (inactive) each time. For the same compound, the GI50 with ACHN, in the test on 786-0, in the test with IGROV-1, in the test on OVCAR-3, in the test on RPMI-8226 and in the test on SK-MEL-2 was > 100 µM (inactive) in each case. Besides, the GI50 in the test on U-251 was > 100 µM (inactive).
Turning to `CCOC(=O)/C(C(=O)Nc1ccc(Cl)cc1)=C(/N)N1CCOCC1`, the GI50 is > 100 µM (inactive) in the test with NCI-H226; > 100 µM (inactive) in the test with CCRF-CEM; > 100 µM (inactive) in the test on SF-295; > 100 µM (inactive) in the test on HCC 2998; > 100 µM (inactive) in the test on UACC-62; above 100 µM in the test with HCT-15. Besides, the GI50 in the test with MDA-MB-435, in the test on NCI/ADR-RES, in the test on SF-268, in the test with HCT-116, with SNB-19 and with ACHN was > 100 µM (inactive) in each case. The GI50 with 786-0, in the test with IGROV-1, in the test on OVCAR-3, in the test with RPMI-8226, in the test with SK-MEL-2 and with U-251 was > 100 µM (inactive) throughout.
With `CC(C)(Br)C(=O)/C=C/c1ccccc1`, the GI50 with NCI-H226 is 5 µM (inactive); with CCRF-CEM, 0.22 µM (active); in the test with SF-295, 16.8 µM (inactive); in the test on HOP-92 it was 4.35 µM (inactive); in the test on UACC-62, 5.73 µM (inactive); with HCT-15, 1.97 µM. Further, the GI50 with MDA-MB-435 was 5.46 µM (inactive); with SK-MEL-5, 11.6 µM (inactive); with NCI/ADR-RES, 17.6 µM (inactive); in the test on SF-268, 10.6 µM (inactive); in the test on HCT-116, 0.625 µM (active); in the test with SNB-19, 22 µM (inactive). For the same compound, the GI50 is 2.55 µM (inactive) in the test with ACHN; 0.485 µM (active) in the test with 786-0; 0.581 µM (active) with IGROV-1; 8.17 µM (inactive) in the test on OVCAR-3; 0.925 µM (active) in the test with RPMI-8226; 1.83 µM (inactive) in the test on SK-MEL-2. In addition, the GI50 in the test with U-251 is 6.95 µM (inactive).
On to `CC(=O)Nc1ccccc1S(=O)(=O)c1c(-c2c(C)c(Cl)c(C)c(Cl)c2C)noc1C`, for which the GI50 was 27 µM (inactive) in the test with NCI-H226; 27.8 µM (inactive) in the test with CCRF-CEM; 32.8 µM (inactive) in the test on SF-295; 90.4 µM (inactive) in the test with HCC 2998; 28.9 µM (inactive) in the test on UACC-62; above 100 µM in the test on HCT-15. Also, the GI50 with MDA-MB-435 is > 100 µM (inactive); in the test on SK-MEL-5 it was > 100 µM (inactive); in the test on NCI/ADR-RES it was 41.2 µM (inactive); in the test on SF-268, 75.2 µM (inactive); in the test with HCT-116 it was 51.5 µM (inactive); in the test with SNB-19 it was 26 µM (inactive). The GI50 in the test with ACHN was 55.2 µM (inactive); with 786-0, 18.4 µM (inactive); in the test with IGROV-1, 56.6 µM (inactive); in the test with OVCAR-3 it was 57.8 µM (inactive); in the test on RPMI-8226, 29.2 µM (inactive); in the test on SK-MEL-2, > 100 µM (inactive). The GI50 with U-251 is 31.6 µM (inactive).
On to `CCOC(=O)NNC(=O)NCc1cccc(CNC(=O)NNC(=O)OCC)c1`, for which the GI50 was > 100 µM (inactive) in the test with NCI-H226; > 100 µM (inactive) in the test on CCRF-CEM; > 100 µM (inactive) with HCC 2998; > 100 µM (inactive) with UACC-62; above 100 µM in the test on HCT-15; > 100 µM (inactive) in the test with MDA-MB-435. Also, the GI50 with SK-MEL-5, in the test with NCI/ADR-RES, with SF-268, in the test with HCT-116, in the test on SNB-19 and in the test on 786-0 was > 100 µM (inactive) in each case. Also, the GI50 in the test with OVCAR-3, in the test with RPMI-8226, in the test on SK-MEL-2 and in the test on U-251 was > 100 µM (inactive) in each case.
Regarding `CC(C)C(O)(C(=O)OCN1C(=O)C2C3C=CC(C2C1=O)C1C2C(=O)N(COC(=O)C(O)(C(C)C)C(C)O)C(=O)C2C31)C(C)O` (stereo not drawn), the GI50 with NCI-H226 is > 100 µM (inactive); in the test on CCRF-CEM, > 100 µM (inactive); in the test with SF-295, > 100 µM (inactive); in the test with HCC 2998, > 100 µM (inactive); in the test on UACC-62 it was > 100 µM (inactive); with HCT-15, above 100 µM. The GI50 with MDA-MB-435, with SK-MEL-5, in the test on NCI/ADR-RES, in the test with SF-268, in the test on HCT-116 and with SNB-19 was > 100 µM (inactive) throughout. In addition, the GI50 with ACHN, in the test with 786-0, with IGROV-1, with OVCAR-3, in the test with RPMI-8226 and with SK-MEL-2 was > 100 µM (inactive) throughout. Also, the GI50 in the test on U-251 is > 100 µM (inactive).
Consider `COc1ccc(N[S+]([O-])C2CCCCC2)cc1` (stereo not drawn), for which the GI50 in the test on NCI-H226 is > 100 µM (inactive); in the test with CCRF-CEM it was > 100 µM (inactive); in the test with SF-295, > 100 µM (inactive); with HCC 2998, 59.2 µM (inactive); in the test on HCT-15 it was above 100 µM; with MDA-MB-435 it was > 100 µM (inactive). In addition, the GI50 in the test with SK-MEL-5, with NCI/ADR-RES, with SF-268, in the test with HCT-116, in the test on SNB-19 and in the test with ACHN was > 100 µM (inactive) throughout. Also, the GI50 in the test on 786-0, in the test on IGROV-1, in the test with OVCAR-3, in the test on RPMI-8226 and in the test on U-251 was > 100 µM (inactive) each time.
As for `CC(C)(C)OC(=O)NC(Cc1ccc([N+](=O)[O-])cc1)C(=O)NC(CCCCNC(=O)OCc1ccccc1)C(=O)ON1C(=O)CCC1=O` (stereo not drawn), the GI50 in the test with NCI-H226 was > 100 µM (inactive); in the test on SF-295 it was 40 µM (inactive); in the test with HCC 2998, 24.4 µM (inactive); in the test with HOP-92 it was > 100 µM (inactive); in the test on UACC-62 it was > 100 µM (inactive); in the test with HCT-15, above 100 µM. Besides, the GI50 in the test on MDA-MB-435 is > 100 µM (inactive); in the test with SK-MEL-5 it was > 100 µM (inactive); in the test with NCI/ADR-RES, > 100 µM (inactive); with SF-268 it was 44.2 µM (inactive); in the test on HCT-116 it was 73.5 µM (inactive); with SNB-19, > 100 µM (inactive). The GI50 in the test with ACHN was > 100 µM (inactive); with 786-0, > 100 µM (inactive); with IGROV-1 it was > 100 µM (inactive); with OVCAR-3 it was > 100 µM (inactive); in the test on RPMI-8226 it was 57 µM (inactive); in the test on U-251 it was > 100 µM (inactive).
As to `COc1cc(CC(C)NC(C)=O)cc(OC)c1` (stereo not drawn), the GI50 is > 100 µM (inactive) with NCI-H226; > 100 µM (inactive) with CCRF-CEM; > 100 µM (inactive) with SF-295; > 100 µM (inactive) with HCC 2998; > 100 µM (inactive) with UACC-62; above 100 µM in the test with HCT-15. Further, the GI50 with MDA-MB-435, in the test on SK-MEL-5, in the test on NCI/ADR-RES, in the test on SF-268, in the test with HCT-116 and in the test on SNB-19 was > 100 µM (inactive) each time. The GI50 in the test with ACHN, in the test on 786-0, in the test with IGROV-1, in the test on OVCAR-3, in the test with RPMI-8226 and in the test with SK-MEL-2 was > 100 µM (inactive) each time. Further, the GI50 with U-251 is > 100 µM (inactive).
